Patent US20100179225A1, “POI Prevention” (CYTOKINE PHARMASCIENCES, INC., priority 2008, published 2010)

Tests used:
JNK/SAPK = JNK/SAPK phosphorylation in ME lysates after intestinal manipulation (immunoblot); type: in vivo, C57BL/6J mice; details: 5 mg/kg i.v. preoperative; after IM
Description: The small bowel of the animals was subjected to a standardized, surgical manipulation (IM) as described previously (Kalff J C, Schraut W H, Simmons R L et al. Surgical manipulation of the gut elicits an intestinal muscularis inflammatory response resulting in postsurgical ileus. Ann Surg 1998; 228:652-663; Wehner S, Schwarz N T, Hundsdoerfer R et al. Induction of IL-6 within the rodent intestinal muscularis after intestinal surgical stress. Surgery 2005; 137:436-446). In brief, after anesthesia a midline abdominal incision was made into the peritoneal cavity. The entire small bowel was eventuated and manipulated with standardized moderate intensity using two moist cotton applicators as described previously. After IM, the laparotomy was closed by one layer of continuous suture, except when probe sampling was conducted within 20 minutes after surgery. […]
p38-MAPK and JNK/SAPK phosphorylation were analyzed in C57BL/6J mice 15, 30 and 60 minutes after IM and in unoperated controls. […] Finally, the sonicated samples were centrifuged at 13.000×g for 10 minutes, and total protein concentration was determined with Pierce BCA protein assay (Perbio, Bonn, Germany). […]
After PAGE, proteins were blotted on Immobilon-P […] PVDF membranes. […] Chemiluminscence signals were detected with a LAS 4000 system (Fujifilm, Duesseldorf, Germany).

C57BL/6J mice = test: Anastomotic wound healing (hydroxyproline content, bursting pressure), mouse; type: in vivo; details: 5 mg/kg i.v. 90 minutes before transection; POD 2, 5 and 10
Procedure: C57BL/6J mice were treated with 0 mg/kg (placebo) or 5 mg/kg CNI-1493 90 minutes before colonic transection followed by an anastomosis with 8-10 interrupted polypropylene 8.0 sutures. On postoperative days (POD) 2, 5 and 10 anastomotic tissue was investigated for disturbances of wound healing by measurement of hydroxyproline content and bursting pressure.
Hydroxyproline content was determined from an 1 cm perianastomotic region as described before (Woessner J. F., Jr. The determination of hydroxyproline in tissue and protein samples containing small proportions of this imino acid. Arch Biochem Biophys 1961; 93:440-447). Results were normalized as micrograms of hydroxyproline per gram tissue.
Anastomotic bursting pressure (ABP) was measured directly after sacrifice and sampling a 3 cm colonic segment including the anastomotic site. The anastomotic specimen was cleared from feces and ligated twice at the distal end using a 6-0 polyglactin (Vicryl™, Ethicon, Belgium) suture. An 18 G arterial catheter (Vygon, France) was inserted intraluminally within the specimen at the proximal end and two stay sutures were tied to prevent leakage. […] The intraluminal pressure (mmHg) was measured and recorded using a pressure transducer with an amplifier and recorded by the Biopac A/D systems (Biopac Systems, Goleta, USA). […]

neutrophils in ME = test: Neutrophil infiltration into rat ME (myeloperoxidase staining) after IM; type: in vivo; details: rats, 24 hours after IM (FIG. 10)
Procedure: Animals within examples referring to FIGS. 2-9 were treated 90 minutes before operation with 0 mg/kg (placebo group), or 5 mg/kg bodyweight CNI-1493. In further experiments in rats or mice 0.1, 1.0 or 10 mg/kg CPSI-2364 were administered 90 minutes before surgical procedure via oral route. Oral (p.o.) administration was performed via a gastric tube. CNI-1493 and CPSI-2364 were dissolved in 2.5% mannitol. Placebo and CNI-1493 or CPSI-2364 groups were subdivided in two further groups. One was sham operated (laparotomy without IM) while the other underwent laparotomy followed by IM.
Specimens for histochemical analysis were prepared 24 h after operation and performed on whole mounts of the distal jejunum, as described before in detail (n=5-7 each group) 9. In brief, jejunal segments were opened, immersed in chilled Krebs-Ringer buffer (KRB) and fixed in 100% ethanol for 10 minutes. After washing with KRB, mucosa and submucosa were stripped off and ME whole mounts were used for detection of myeloperoxidase (MPO) positive cells (neutrophils). […] MPO+-cells were counted under a microscope (TE-2000, Nikon, Duesseldorf, Germany) in 5 randomly chosen areas in each specimen.
Example 3 was repeated in rats and mice, i.e. the infiltration of neutrophils within the ME after preoperative p.o. application of the drug was analyzed (FIGS. 10 and 11). […]

Compound: C/C(=N\N=C(N)N)c1cc(NC(=O)CCCCCCCCC(=O)Nc2cc(/C(C)=N/N=C(N)N)cc(/C(C)=N/N=C(N)N)c2)cc(/C(C)=N/N=C(N)N)c1.Cl.Cl.Cl.Cl [CNI-1493]
- JNK/SAPK phosphorylation (JNK/SAPK): not affected
- anastomotic bursting pressure vs placebo (C57BL/6J mice): did not differ at any time
- anastomotic hydroxyproline content vs placebo (C57BL/6J mice): did not differ at any time

Compound: C/C(=N\N=C(N)N)c1cc(NC(=O)CCCCCCCCC(=O)Nc2cc(/C(C)=N/N=C(N)N)cc(/C(C)=N/N=C(N)N)c2)cc(/C(C)=N/N=C(N)N)c1.CS(=O)(=O)O.CS(=O)(=O)O.CS(=O)(=O)O.CS(=O)(=O)O [CPSI-2364]
- neutrophils in ME compared to the placebo IM group (neutrophils in ME; 0.1 mg/kg bodyweight p.o.): led to the described results
- neutrophils in ME compared to the placebo IM group (neutrophils in ME; p.o. preoperative): significant reduction of neutrophils
